Reference: patent US8569380B2, “Oligomer-tricyclic conjugates” (Nektar Therapeutics, priority 2007, dated 2013)
Values joined by “and” are separate entries in the source; they are usually repeats but may differ in a detail not shown here. Equal entries are not always repeated. Where two headings read alike, the source gives them in different places.

Tests used:
[1] = molecular target: T1, recombinant human M1 muscarinic acetylcholine receptor (Homo sapiens, UniProt P11229); experiment: Muscarinic receptor binding assay, M1; conditions: 3H-N-Methylscopolamine 0.8 nM, CHO membranes
T1 construct: expressed in transfected cells; host or cells: CHO cells (membranes)
T1 sequence (P11229 1-460): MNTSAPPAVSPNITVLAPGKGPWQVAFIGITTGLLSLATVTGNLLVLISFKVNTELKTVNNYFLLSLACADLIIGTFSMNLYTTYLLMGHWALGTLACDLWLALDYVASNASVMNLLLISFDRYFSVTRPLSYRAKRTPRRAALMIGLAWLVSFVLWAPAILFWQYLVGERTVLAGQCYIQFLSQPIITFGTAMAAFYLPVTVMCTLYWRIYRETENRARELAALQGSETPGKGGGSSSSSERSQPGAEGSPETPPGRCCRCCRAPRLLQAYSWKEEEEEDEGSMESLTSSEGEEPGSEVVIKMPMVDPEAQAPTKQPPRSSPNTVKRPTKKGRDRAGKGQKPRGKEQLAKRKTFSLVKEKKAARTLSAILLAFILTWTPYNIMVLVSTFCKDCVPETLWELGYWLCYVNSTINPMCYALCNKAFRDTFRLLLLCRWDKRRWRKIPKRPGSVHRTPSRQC
Method: (§1) Competition binding experiments were conducted by incubating membranes with a fixed concentration of radioligand in the presence of variable concentrations of test compounds. ^3H—N-Methylscopolamine at 0.8 nM was used as the radioligand for all receptor subtypes. Incubations were carried out for 2 hours at 25° C. in buffer containing 50 mM Tris HCl, 10 mM MgCl2 and 1 mM EDTA. Following incubations, the membranes were washed the bound radioactivity was measured. […] Ki was obtained using the Cheng Prusoff correction using Kd values that were experimental determined previously under these assay conditions.

[2] = molecular target: T2, recombinant human H1 histamine receptor (Homo sapiens, UniProt P35367); experiment: Histamine receptor radioligand binding assay, H1; conditions: for H1 Receptor Fold-change over parent: Ki relative to amitriptyline; for Ki: [3H]-Pyrilamine 1.2 nM, CHO membranes; for H1:H2 Selectivity: H2 Ki versus H1 Ki
T2 construct: expressed in transfected cells; host or cells: CHO cells (membranes)
Method: (§2) Competition binding experiments were conducted by incubating membranes with a fixed concentration of radioligand in the presence of variable concentrations of test compounds. The radioligands used were specific for each receptor subtype and the assay conditions are described in Table 2. Following incubations, the membranes were washed and the bound radioactivity was measured. Non-specific binding was measured in the presence of excess unlabelled ligand; this value was subtracted from the total binding yielding the specific binding at each test compound concentration.
(§3) Ki was obtained using the Cheng Prusoff correction using experimental Kd values that were previously determined under the same assay conditions.

[3] = molecular target: T3, recombinant human M2 muscarinic acetylcholine receptor (Homo sapiens, UniProt P08172); experiment: Muscarinic receptor binding assay, M2; conditions: 3H-N-Methylscopolamine 0.8 nM, CHO membranes
T3 construct: expressed in transfected cells; host or cells: CHO cells (membranes)
T3 sequence (P08172 1-466): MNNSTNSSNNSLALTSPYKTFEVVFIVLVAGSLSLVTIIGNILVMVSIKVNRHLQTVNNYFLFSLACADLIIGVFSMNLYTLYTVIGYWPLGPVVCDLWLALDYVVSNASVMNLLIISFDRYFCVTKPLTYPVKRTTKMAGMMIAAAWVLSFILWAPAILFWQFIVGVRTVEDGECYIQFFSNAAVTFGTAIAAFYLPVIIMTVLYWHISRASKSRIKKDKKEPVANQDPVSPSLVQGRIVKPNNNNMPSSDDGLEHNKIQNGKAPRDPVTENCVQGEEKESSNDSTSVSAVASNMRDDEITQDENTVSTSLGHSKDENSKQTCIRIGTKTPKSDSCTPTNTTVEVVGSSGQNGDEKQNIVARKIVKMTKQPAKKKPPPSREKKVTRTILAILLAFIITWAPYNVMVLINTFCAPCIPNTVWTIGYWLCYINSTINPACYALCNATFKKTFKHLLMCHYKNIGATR
Method: as §1

[4] = pKa and LogP determinations; type: physicochemical
[5] = molecular target: T4, noradrenalin transporters (rat forebrain membranes) (Rattus norvegicus, UniProt Q9WTR4); experiment: Noradrenalin transporter binding assay; conditions: for Ki: [3H]-nisoxetine 1.0 nM, rat forebrain membranes, read-out: Ki, binding affinity to noradrenalin transporters
T4 construct: membranes prepared from rat forebrain which express noradrenalin transporters; from tissue; host or cells: rat forebrain membranes
Method: Competition binding experiments were conducted by incubating membranes with 1.0 nM of radioligand, [^3H]-nisoxetine, in the presence of variable concentrations (0.1 nM to 3 μM and 3 nM to 100 μM for parent and PEG conjugates, respectively) of test compounds. The reaction was carried out in 50 mM Tris-HCl (pH 7.4), 300 mM NaCl, 5 mM KCl at 0-4° C. for 4 hours. Following incubations, the membranes were washed, and the bound radioactivity was measured.
Ki was obtained using the Cheng Prusoff correction using experimental Kd values that were previously determined under these assay conditions.

[6] = molecular target: T5, recombinant human H2 histamine receptor (Homo sapiens, UniProt P25021); experiment: Histamine receptor radioligand binding assay, H2; conditions: for H2 Receptor Fold-change over parent: Ki relative to amitriptyline; for Ki: [125I]-Aminopotentidine 0.1 nM, CHO membranes
T5 construct: expressed in transfected cells; host or cells: CHO cells (membranes)
Method: as §2, §3

[7] = tested on: sodium channels (neuronal INa) in isolated rat dorsal root ganglion cells; experiment: Sodium channel assay, whole-cell patch clamp, neuronal INa; type: cell-based; conditions: for IC50: approximate, >50% inhibition not obtained at highest concentration
[8] = molecular target: sodium channels (cardiac INa) in isolated human atrial myocytes (Homo sapiens, UniProt Q14524); experiment: Sodium channel assay, whole-cell patch clamp, cardiac INa; type: cell-based; conditions: for IC50: approximate, >50% inhibition not obtained at highest concentration
[9] = molecular target: T6, recombinant human M4 muscarinic acetylcholine receptor (Homo sapiens, UniProt P08173); experiment: Muscarinic receptor binding assay, M4; conditions: 3H-N-Methylscopolamine 0.8 nM, CHO membranes
T6 construct: expressed in transfected cells; host or cells: CHO cells (membranes)
T6 sequence (P08173 1-479): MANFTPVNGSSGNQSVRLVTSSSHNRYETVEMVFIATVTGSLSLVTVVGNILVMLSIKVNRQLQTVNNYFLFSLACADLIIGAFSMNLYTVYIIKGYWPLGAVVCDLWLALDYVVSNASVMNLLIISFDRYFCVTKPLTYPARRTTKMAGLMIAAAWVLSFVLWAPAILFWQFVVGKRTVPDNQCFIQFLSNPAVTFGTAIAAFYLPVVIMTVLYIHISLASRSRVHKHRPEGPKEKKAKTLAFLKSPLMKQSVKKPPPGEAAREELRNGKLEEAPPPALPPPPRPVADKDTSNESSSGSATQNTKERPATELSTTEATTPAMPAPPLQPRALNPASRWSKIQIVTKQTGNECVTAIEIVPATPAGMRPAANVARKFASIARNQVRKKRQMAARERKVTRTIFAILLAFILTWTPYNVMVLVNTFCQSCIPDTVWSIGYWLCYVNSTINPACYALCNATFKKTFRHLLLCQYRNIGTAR
Method: as §1

[10] = molecular target: T7, recombinant human M5 muscarinic acetylcholine receptor (Homo sapiens, UniProt P08912); experiment: Muscarinic receptor binding assay, M5; conditions: 3H-N-Methylscopolamine 0.8 nM, CHO membranes
T7 construct: expressed in transfected cells; host or cells: CHO cells (membranes)
T7 sequence (P08912 1-532): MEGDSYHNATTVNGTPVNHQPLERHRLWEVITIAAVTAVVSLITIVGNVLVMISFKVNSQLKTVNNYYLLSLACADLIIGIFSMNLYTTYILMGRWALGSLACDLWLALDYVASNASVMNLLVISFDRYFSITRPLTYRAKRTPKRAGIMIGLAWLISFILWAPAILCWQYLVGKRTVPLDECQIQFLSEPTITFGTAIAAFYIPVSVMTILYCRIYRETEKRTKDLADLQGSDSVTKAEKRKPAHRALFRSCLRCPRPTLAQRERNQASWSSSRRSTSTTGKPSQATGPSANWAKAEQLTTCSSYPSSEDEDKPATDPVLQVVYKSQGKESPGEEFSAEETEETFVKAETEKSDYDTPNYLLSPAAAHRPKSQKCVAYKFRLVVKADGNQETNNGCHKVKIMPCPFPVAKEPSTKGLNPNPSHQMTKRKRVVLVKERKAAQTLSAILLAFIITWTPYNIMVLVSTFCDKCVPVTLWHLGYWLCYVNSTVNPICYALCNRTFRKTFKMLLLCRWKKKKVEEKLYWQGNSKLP
Method: as §1

[11] = pacing 0.1 Hz, read-out: Neuronal INa IC50 at 0.1 Hz
[12] = pacing 3 Hz, read-out: Neuronal INa IC50 at 3 Hz
[13] = pacing 0.1 Hz, read-out: Cardiac INa IC50 at 0.1 Hz
[14] = pacing 3 Hz, read-out: Cardiac INa IC50 at 3 Hz

T2 sequence (P35367 whole entry): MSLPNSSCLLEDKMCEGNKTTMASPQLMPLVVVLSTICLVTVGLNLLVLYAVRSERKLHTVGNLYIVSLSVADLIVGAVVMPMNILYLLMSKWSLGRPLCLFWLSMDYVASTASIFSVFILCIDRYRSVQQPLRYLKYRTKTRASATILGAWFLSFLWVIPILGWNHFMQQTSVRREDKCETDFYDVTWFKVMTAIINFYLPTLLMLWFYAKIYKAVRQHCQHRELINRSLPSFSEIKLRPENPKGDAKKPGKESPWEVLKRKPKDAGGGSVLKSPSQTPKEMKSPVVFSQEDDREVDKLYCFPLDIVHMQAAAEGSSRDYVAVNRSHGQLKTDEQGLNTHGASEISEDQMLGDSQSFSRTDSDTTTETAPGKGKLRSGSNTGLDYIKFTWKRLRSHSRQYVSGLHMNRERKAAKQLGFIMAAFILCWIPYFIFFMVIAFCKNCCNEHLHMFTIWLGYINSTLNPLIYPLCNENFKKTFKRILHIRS
T4 sequence (Q9WTR4 1-597): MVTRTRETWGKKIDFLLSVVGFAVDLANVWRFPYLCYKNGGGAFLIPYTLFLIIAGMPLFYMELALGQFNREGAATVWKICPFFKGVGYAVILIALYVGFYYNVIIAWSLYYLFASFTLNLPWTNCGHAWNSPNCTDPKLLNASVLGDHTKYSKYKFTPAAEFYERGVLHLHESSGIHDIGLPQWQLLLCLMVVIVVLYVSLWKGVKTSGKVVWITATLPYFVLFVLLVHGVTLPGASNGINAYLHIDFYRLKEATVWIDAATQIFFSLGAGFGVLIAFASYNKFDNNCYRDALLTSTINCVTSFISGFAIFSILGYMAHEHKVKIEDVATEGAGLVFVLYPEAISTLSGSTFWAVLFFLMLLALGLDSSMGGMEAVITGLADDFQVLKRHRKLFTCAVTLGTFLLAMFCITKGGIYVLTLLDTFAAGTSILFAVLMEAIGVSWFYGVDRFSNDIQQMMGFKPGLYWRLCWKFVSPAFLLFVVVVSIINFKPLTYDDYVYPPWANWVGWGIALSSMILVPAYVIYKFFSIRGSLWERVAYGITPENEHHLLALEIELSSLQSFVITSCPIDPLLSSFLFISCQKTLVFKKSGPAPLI
T5 sequence (P25021 whole entry): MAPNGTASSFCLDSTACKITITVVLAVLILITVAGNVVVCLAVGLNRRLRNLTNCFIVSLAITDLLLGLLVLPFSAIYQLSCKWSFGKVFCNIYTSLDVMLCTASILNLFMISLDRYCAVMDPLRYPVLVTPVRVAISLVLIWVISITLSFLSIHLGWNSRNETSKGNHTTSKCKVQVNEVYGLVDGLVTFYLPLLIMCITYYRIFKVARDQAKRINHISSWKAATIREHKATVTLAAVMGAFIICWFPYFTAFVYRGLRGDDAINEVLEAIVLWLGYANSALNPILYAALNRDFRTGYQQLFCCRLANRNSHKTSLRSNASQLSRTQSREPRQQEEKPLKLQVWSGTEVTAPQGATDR
Chain of sodium channels (cardiac INa) in isolated human atrial myocytes (Q14524 whole entry): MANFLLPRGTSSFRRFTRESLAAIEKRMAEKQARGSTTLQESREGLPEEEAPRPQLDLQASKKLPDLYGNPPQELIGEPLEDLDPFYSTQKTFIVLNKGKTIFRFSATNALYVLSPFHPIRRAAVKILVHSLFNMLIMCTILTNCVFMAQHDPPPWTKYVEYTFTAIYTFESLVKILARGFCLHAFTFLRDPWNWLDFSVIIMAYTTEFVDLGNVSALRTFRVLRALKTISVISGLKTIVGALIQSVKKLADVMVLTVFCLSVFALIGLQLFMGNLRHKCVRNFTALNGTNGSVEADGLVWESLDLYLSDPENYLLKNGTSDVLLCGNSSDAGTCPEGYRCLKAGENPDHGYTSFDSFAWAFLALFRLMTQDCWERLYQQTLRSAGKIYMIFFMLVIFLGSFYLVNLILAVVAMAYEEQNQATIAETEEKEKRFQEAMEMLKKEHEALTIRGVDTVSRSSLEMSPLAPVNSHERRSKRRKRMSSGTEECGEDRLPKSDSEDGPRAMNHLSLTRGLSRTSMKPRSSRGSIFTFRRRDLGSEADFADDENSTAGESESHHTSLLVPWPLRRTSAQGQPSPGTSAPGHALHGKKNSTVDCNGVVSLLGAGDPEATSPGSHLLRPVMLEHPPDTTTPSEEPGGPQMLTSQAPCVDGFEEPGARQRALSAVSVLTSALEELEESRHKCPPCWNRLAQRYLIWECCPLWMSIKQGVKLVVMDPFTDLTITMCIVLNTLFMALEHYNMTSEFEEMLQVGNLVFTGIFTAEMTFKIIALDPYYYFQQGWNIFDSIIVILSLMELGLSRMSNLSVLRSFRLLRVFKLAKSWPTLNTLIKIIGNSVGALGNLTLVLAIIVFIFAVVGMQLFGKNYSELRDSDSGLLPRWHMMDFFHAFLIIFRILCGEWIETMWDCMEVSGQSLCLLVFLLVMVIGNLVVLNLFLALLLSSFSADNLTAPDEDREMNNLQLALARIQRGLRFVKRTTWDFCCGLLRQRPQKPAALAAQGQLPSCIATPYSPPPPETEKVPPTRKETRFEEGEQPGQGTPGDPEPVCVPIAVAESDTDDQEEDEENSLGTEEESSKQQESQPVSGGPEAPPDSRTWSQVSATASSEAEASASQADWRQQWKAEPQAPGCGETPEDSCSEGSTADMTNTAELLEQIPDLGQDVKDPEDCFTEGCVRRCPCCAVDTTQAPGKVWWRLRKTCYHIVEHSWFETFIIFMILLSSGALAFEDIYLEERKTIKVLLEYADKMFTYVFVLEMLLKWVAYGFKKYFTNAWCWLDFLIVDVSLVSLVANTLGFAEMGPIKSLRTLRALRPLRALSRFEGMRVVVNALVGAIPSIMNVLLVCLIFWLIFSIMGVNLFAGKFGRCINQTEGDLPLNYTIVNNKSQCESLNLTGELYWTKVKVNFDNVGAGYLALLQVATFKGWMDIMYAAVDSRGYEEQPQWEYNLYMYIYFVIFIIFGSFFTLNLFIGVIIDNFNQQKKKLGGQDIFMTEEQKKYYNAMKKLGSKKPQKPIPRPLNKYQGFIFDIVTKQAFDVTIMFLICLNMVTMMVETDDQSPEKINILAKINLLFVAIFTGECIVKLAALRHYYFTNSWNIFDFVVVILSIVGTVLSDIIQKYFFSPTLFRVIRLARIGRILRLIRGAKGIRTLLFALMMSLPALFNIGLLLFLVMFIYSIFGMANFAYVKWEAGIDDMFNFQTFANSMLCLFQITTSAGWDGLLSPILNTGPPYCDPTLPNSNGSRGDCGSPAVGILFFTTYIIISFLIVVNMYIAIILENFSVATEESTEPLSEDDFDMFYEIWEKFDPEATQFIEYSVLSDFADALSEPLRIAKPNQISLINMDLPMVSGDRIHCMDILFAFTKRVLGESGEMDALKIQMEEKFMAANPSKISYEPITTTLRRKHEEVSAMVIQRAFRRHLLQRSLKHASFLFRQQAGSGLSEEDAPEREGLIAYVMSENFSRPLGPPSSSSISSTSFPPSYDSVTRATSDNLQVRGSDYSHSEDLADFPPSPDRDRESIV

Compound: COCCOCCOCCOCCOCCOCCN(C)CCC=C1c2ccccc2CCc2ccccc21 [mPEG6-N-Amitriptyline]
- Ki [1]: 0.869 µM
- H1 Receptor Fold-change over parent [2]: 19
- Ki [2]: 0.00613 µM
- Ki [3]: 1.17 µM

Compound: COCCOCCOCCOCCOCCOCCOCCOCCN(C)CCCN1c2ccccc2CCc2ccccc21 [mPEG8-N-Desipramine]
- pKa [4]: 8.66

Compound: COCCOCCOCCOCCOCCOCCOCCNCCCN1c2ccccc2CCc2ccccc21 [mPEG7-NH-Desipramine, N-mPEG7-3-(10,11-dihydro-dibenzo[b,f]azepin-5-yl)-propylamine]
- logP [4]: 2.5
- pKa [4]: 8.94
- Fold Change Relative to Parent [5]: 2972
- Ki [5]: 5.92 µM

Compound: COCCOCCOCCN(C)CCC=C1c2ccccc2CCc2ccccc21 [mPEG3-N-Amitriptyline]
- H2 Receptor Fold-change over parent [6]: 14
- Ki [6]: 3.01 µM
- H1:H2 Selectivity [2]: 1663
- H1 Receptor Fold-change over parent [2]: 6
- Ki [2]: 0.00181 µM

Compound: COCCOCCOCCN(C)CCCN1c2ccccc2CCc2ccccc21 [mPEG3-N-Desipramine]
- pKa [4]: 8.47

Compound: NC(=O)N1c2ccccc2C=Cc2ccccc21 [Carbamazepine, reference compound]
- IC50 [7, 11]: 102 µM
- IC50 [7, 12]: 114 µM
- Cardiac INa Fold Change Relative to Parent, 0.1 Hz ([8]; pacing 0.1 Hz, relative to carbamazepine): 1.0
- IC50 [8, 13]: 160 µM
- Cardiac INa Fold Change Relative to Parent, 3 Hz ([8]; pacing 3 Hz, relative to carbamazepine): 1.0
- IC50 [8, 14]: 145 µM

Compound: COCCOCCOCCOCCOCCN(C)CCC=C1c2ccccc2CCc2ccccc21 [mPEG5-N-Amitriptyline]
- H2 Receptor Fold-change over parent [6]: 63
- Ki [6]: 13.1 µM
- H1:H2 Selectivity [2]: 3670
- H1 Receptor Fold-change over parent [2]: 11
- Ki [2]: 0.00357 µM

Compound: COCCOCCOCCOCCOCCNC(=O)N1c2ccccc2C=Cc2ccccc21 [mPEG5-N-Carbamazepine]
- Cardiac INa Fold Change Relative to Parent, 0.1 Hz [8]: 0.4
- Cardiac INa Fold Change Relative to Parent, 3 Hz [8]: 0.4

Compound: COCCOCCOCCNCCCN1c2ccccc2CCc2ccccc21 [mPEG3-NH-Desipramine, N-mPEG3-3-(10,11-dihydro-dibenzo[b,f]azepin-5-yl)-propylamine]
- logP [4]: 3.14
- pKa [4]: 8.96
- Fold Change Relative to Parent [5]: 3336
- Ki [5]: 6.65 µM

Compound: NC1=N[C@H](O)[C@H]2[C@H]3O[C@]4(O)O[C@@H]([C@@H](O)[C@@]2(N1)[C@@H]4O)[C@]3(O)CO [TTX, tetrodotoxin, reference compound]
- reduction of INa [7]: 93.2% and 96.8%
- reduction of INa [8]: 47.2% and 56.8%

Compound: CN(C)CCC=C1c2ccccc2CCc2ccccc21 [Amitriptyline]
- Ki [9]: 0.0239 µM
- Ki [10]: 0.017 µM

Compound: COCCOCCOCCOCCOCCOCCOCCNC(=O)N1c2ccccc2C=Cc2ccccc21 [mPEG7-N-Carbamazepine]
- IC50 [7, 11]: 144 µM
- IC50 [7, 12]: 163 µM
- Cardiac INa Fold Change Relative to Parent, 0.1 Hz [8]: 2.4
- Cardiac INa Fold Change Relative to Parent, 3 Hz [8]: 1.2
- IC50 [8, 13]: 380 µM
- IC50 [8, 14]: 169 µM

Compound: COCCOCCOCCNC(=O)N1c2ccccc2C=Cc2ccccc21 [mPEG3-N-Carbamazepine]
- IC50 [7, 11]: 142 µM
- IC50 [7, 12]: 578 µM
- Cardiac INa Fold Change Relative to Parent, 0.1 Hz [8]: 2.8
- Cardiac INa Fold Change Relative to Parent, 3 Hz [8]: 1.5
- IC50 [8, 13]: 460 µM
- IC50 [8, 14]: 214 µM

Compound: COCCOCCOCCOCCOCCN(C)CCCN1c2ccccc2CCc2ccccc21 [mPEG5-N-Desipramine]
- pKa [4]: 8.55

Compound: COCCOCCOCCOCCOCCOCCOCCN(C)CCC=C1c2ccccc2CCc2ccccc21 [mPEG7-N-Amitriptyline]
- H1 Receptor Fold-change over parent [2]: 23
- Ki [2]: 0.00744 µM
- Ki [3]: 1.14 µM
